In PubChem BioAssay (NCI):
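Where inhibition never reached the appropriate level, the endpoint shown equals the highest concentration tested. Otherwise, values were interpolated linearly from a five-concentration, 48-hour dose response in 96-well plates. TGI: total growth inhibition.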

How the values were obtained:
Test in all cases: NCI-60 cell line screen, 48 h
[1] = tested on: DU-145 prostate
[2] = tested on: HT29 colon
[3] = tested on: MOLT-4 leukemia
[4] = tested on: NCI-H460 lung
[5] = tested on: NCI-H522 lung
[6] = tested on: OVCAR-3 ovarian
[7] = tested on: OVCAR-8 ovarian
[8] = tested on: SW-620 colon
[9] = tested on: TK-10 renal
[10] = tested on: UACC-62 melanoma

SMILES | TGI [1] | TGI [2] | TGI [3] | TGI [4] | TGI [5] | TGI [6] | TGI [7] | TGI [8] | TGI [9] | TGI [10]
Cc1ccc2cccc(-c3cccc4ccccc34)c2n1 | > 100 µM | 76.9 µM | 40.6 µM | 89 µM | 66.5 µM | > 100 µM | 57.7 µM | > 100 µM | 36.2 µM | 61.9 µM
Cc1ccccc1-c1nc2c(N)nc(N)nc2nc1N | > 100 µM | > 100 µM | > 100 µM | > 100 µM | > 100 µM | > 100 µM | > 100 µM | > 100 µM | > 100 µM | > 100 µM
C[C@@H]1CC[C@@]2(C)C(C(=O)O)=CCCC2[C@@]1(C)CC(=O)c1ccoc1 (stereo partly drawn) | > 25 µM | > 25 µM | > 25 µM | > 25 µM | > 25 µM | > 25 µM | > 25 µM | > 25 µM | > 25 µM | > 25 µM
N#Cc1c(-c2ccc([N+](=O)[O-])cc2)cc(-c2ccc(Nc3ccnc4cc(Cl)ccc34)cc2)[nH]c1=O | > 100 µM |  | > 100 µM | > 100 µM | > 100 µM | > 100 µM | > 100 µM | > 100 µM | > 100 µM | > 100 µM
CCc1c(O)cc(=O)oc1-c1ccc(OC)c(OC)c1 | > 100 µM | > 100 µM | > 100 µM | > 100 µM | > 100 µM | > 100 µM | > 100 µM | > 100 µM | > 100 µM | > 100 µM
COc1ccc2nc(NC(=O)/C(C#N)=C/c3ccccc3)sc2c1 | > 100 µM | > 96.1 µM | > 100 µM | > 100 µM | 65.4 µM | > 100 µM | > 100 µM | > 100 µM | 88 µM | > 100 µM
O=C(/C=C/c1ccc(Cl)cc1)Oc1ccc(C=C2CCC/C(=C\c3ccc(OC(=O)/C=C/c4ccc(Cl)cc4)cc3)C2=O)cc1 | > 100 µM | > 100 µM | > 100 µM | > 100 µM | > 100 µM | > 100 µM | > 100 µM | > 100 µM | > 100 µM | > 100 µM
O=C(NCc1ccccc1)c1cc2ccccc2oc1=Nc1cccc(C(F)(F)F)c1 | > 100 µM | > 100 µM | 92.5 µM | > 100 µM | > 100 µM | > 100 µM | > 100 µM | > 100 µM | > 100 µM | > 100 µM
CC1=CC2C3(C)C(C)(C(C)=CP3(=O)c3c(C(C)C)cc(C(C)C)cc3C(C)C)C1P2(=O)c1c(C(C)C)cc(C(C)C)cc1C(C)C (stereo not drawn) | 14.2 µM | 6.29 µM | 5.78 µM | 3.01 µM | 8.64 µM | 6.43 µM | 16.6 µM | 13.6 µM | 7.34 µM | 2.92 µM
COCOc1ccc(C(=O)Oc2cccc3c2OC(C)(C)O3)c(OCOC)c1 | > 100 µM | > 100 µM | > 100 µM | > 100 µM |  | > 100 µM | > 100 µM | > 100 µM | > 100 µM | 95.7 µM
O=C(ON=C1c2ccccc2C(Br)C(Br)c2ccccc21)c1ccccc1 (stereo not drawn) | 31.8 µM | 38 µM | 4.61 µM | 18.8 µM | 3.85 µM | 28.7 µM | 30.8 µM | 28.6 µM | 31.5 µM | 32.7 µM
OCc1ccc2c(c1)CC1(C2)Cc2cc3c(cc2C1O)CCC3 (stereo not drawn) | 67.1 µM | 17.5 µM | 21.1 µM | 17.1 µM | 10 µM | > 50.9 µM | 30.9 µM | 24 µM | 67.1 µM | 16.2 µM
Cc1nc(N)c(N2CCN(C#N)CC2)c(=O)[nH]1 | > 100 µM | > 100 µM | > 100 µM | > 100 µM | > 100 µM | > 100 µM | > 100 µM | > 100 µM | > 100 µM | 
CCCCI(O)OS(=O)(=O)c1ccc(C)cc1 | > 100 µM | > 100 µM | > 100 µM |  | 48.9 µM | > 100 µM | > 100 µM | > 100 µM | > 100 µM | > 100 µM
c1c[nH]c(-c2cccc3nsnc23)c1 | > 100 µM | > 100 µM | > 100 µM | > 100 µM | > 100 µM |  | > 100 µM | > 100 µM | > 100 µM | > 100 µM
Nc1ncnc2c1nnn2C1C=CC(CP(=O)(O)O)C1 (stereo not drawn) | > 100 µM | > 100 µM | > 100 µM | > 100 µM |  | > 100 µM | > 100 µM | > 100 µM | > 100 µM | > 100 µM
COc1ccc(C2Oc3ccc(Cl)cc3C=C2[N+](=O)[O-])cc1 (stereo not drawn) | > 100 µM | > 100 µM | > 100 µM | > 100 µM | > 100 µM | > 100 µM | > 100 µM |  | > 100 µM | > 100 µM
CC(=O)Nc1nc(Cl)cc(NCC2(CO)CCC2)n1 | > 100 µM | > 100 µM | > 100 µM | > 100 µM | > 100 µM | > 100 µM | > 100 µM | > 100 µM |  | > 100 µM
CCOC(=O)c1c(N2CCCC2)[nH]c(=O)c(C(c2ccc(OC)cc2)c2c(O)c(C(=O)OCC)c(N3CCCC3)[nH]c2=O)c1O | > 100 µM |  | > 100 µM | > 100 µM | > 100 µM | > 100 µM | > 100 µM | > 100 µM | > 100 µM | > 100 µM
CC(=O)c1ccc(Oc2c3ccccc3nc3ccccc23)cc1 | 15.2 µM | 6.69 µM |  | 31.9 µM | 25.4 µM | 21 µM | 22.2 µM | 20.5 µM | 19.8 µM | 17 µM
NS(=O)(=O)c1nnc(NC(=O)N(c2ccccc2)c2ccccc2)s1 | 41 µM | > 100 µM | > 100 µM |  | 40.9 µM | 69.7 µM | 51.1 µM | > 100 µM | > 100 µM | 59.1 µM
CC(C)C(Br)CCC1=CCC(Br)(Br)C1 (stereo not drawn) | 32.5 µM | 28.6 µM | > 100 µM | 31.7 µM | 6.81 µM | 25.7 µM |  | 12.2 µM | 31.4 µM | 19.9 µM
